Measurements: US20250326753A1, “DUAL CXCR4-BTK INHIBITORS” (X4 Pharmaceuticals, Inc., priority 2022, published 2025)
pIC50: −log10 of the molar value.

Tests used:
[1] = target: T1, SRMS (Homo sapiens, UniProt Q9H3Y6); assay: PanQinase kinase panel: SRMS; type: biochemical; settings: read-out: INHIBITORY EFFECT @ 1 uM: SRMS
T1 construct: purchased Reaction Biology Europe GmbH
Procedure: (§1) Screening procedures were performed in accordance with the company's on-line protocol [accessed on-line Mar.
(§2) For each kinase, the median value of the cpm of three wells was defined as “low control” (n=3). This value reflects unspecific binding of radioactivity to the plate in the absence of a protein kinase but in the presence of the substrate. Additionally, for each kinase the median value of the cpm of three other wells was taken as the “high control,” i.e. full activity in the absence of any inhibitor (n=3). The difference between high and low control of each enzyme was taken as 100% activity.
(§3) As part of the data evaluation the low control of each kinase was subtracted from the high control value as well as from their corresponding “compound values”. The residual activity (in %) for each compound well was calculated by using the following formula: Res. Activity (%)=100×[(signal of compound−low control)/(high control−low control)].

[2] = target: T2, EPHA6 (Homo sapiens, UniProt Q9UF33); assay: PanQinase kinase panel: EPHA6; type: biochemical; settings: read-out: INHIBITORY EFFECT @ 1 uM: EPHA6
T2 construct: purchased Reaction Biology Europe GmbH
T2 sequence (Q9UF33 23-1036): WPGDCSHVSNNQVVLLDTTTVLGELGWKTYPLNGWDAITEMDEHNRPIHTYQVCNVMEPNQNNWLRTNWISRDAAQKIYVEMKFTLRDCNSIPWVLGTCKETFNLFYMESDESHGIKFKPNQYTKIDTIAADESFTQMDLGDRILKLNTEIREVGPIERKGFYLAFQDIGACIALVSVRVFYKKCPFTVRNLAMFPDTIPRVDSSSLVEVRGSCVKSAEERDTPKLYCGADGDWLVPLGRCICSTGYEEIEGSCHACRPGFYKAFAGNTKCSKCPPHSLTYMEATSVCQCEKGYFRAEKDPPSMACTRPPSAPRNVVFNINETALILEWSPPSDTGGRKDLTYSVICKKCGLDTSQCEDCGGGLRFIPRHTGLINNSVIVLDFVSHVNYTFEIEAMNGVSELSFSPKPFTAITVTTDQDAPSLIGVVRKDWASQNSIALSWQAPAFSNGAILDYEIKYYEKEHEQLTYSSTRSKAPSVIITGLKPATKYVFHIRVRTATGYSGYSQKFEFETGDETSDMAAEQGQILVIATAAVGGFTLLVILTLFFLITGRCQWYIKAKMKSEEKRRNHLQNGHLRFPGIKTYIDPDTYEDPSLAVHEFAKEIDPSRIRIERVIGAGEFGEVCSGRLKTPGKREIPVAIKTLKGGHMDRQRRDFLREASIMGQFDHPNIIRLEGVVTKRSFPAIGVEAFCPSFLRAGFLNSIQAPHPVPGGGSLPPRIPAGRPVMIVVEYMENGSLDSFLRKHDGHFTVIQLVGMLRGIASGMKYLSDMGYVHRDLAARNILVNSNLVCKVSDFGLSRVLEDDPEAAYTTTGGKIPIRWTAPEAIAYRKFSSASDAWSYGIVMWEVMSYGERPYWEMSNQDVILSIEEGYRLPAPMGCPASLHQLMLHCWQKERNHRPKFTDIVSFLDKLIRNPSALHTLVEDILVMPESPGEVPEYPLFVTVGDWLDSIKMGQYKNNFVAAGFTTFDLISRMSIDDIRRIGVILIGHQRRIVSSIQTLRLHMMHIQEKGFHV
Procedure: as §1, §2, §3

[3] = target: T3, KIT (Homo sapiens, UniProt P10721); assay: PanQinase kinase panel: KIT; type: biochemical; settings: read-out: INHIBITORY EFFECT @ 1 uM: KIT
T3 construct: purchased Reaction Biology Europe GmbH
T3 sequence (P10721 26-976): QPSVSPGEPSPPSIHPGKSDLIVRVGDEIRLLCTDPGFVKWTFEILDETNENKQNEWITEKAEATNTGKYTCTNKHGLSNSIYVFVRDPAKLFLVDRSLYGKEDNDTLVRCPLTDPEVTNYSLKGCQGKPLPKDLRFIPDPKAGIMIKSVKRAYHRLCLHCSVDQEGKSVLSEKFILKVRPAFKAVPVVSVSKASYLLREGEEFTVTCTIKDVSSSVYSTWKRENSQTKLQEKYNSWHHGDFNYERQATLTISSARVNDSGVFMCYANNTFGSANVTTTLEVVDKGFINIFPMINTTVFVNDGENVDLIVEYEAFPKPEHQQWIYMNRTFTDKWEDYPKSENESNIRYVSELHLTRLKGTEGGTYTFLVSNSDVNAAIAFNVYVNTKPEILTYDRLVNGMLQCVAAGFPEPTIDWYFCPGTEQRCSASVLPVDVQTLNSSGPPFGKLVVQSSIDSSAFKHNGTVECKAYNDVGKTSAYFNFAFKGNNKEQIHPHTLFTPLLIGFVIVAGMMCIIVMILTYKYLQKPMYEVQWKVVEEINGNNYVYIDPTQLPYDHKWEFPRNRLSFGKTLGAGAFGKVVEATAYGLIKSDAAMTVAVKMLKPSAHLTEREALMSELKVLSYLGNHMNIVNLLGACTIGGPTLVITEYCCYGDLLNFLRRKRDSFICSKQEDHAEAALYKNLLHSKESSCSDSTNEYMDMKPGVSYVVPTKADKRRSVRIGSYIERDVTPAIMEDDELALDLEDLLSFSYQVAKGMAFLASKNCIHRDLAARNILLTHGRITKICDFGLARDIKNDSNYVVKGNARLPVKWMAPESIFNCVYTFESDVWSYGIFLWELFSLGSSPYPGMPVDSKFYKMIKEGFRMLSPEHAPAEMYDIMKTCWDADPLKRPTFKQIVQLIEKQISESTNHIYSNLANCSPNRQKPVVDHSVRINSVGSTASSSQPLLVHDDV
Procedure: as §1, §2, §3

[4] = target: T4, MEK1 (Homo sapiens, UniProt Q02750); assay: PanQinase kinase panel: MEK1; type: biochemical; settings: read-out: INHIBITORY EFFECT @ 1 uM: MEK1
T4 construct: purchased Reaction Biology Europe GmbH
T4 sequence (Q02750 whole entry): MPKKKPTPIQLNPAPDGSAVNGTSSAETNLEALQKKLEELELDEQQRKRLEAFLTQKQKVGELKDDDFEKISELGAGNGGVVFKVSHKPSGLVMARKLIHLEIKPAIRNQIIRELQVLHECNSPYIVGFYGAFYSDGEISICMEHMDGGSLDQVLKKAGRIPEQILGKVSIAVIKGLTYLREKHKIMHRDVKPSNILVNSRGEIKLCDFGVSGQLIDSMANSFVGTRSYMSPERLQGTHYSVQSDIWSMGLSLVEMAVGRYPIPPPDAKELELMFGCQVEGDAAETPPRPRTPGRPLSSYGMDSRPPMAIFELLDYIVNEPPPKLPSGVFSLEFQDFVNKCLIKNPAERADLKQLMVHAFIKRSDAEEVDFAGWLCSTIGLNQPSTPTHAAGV
Procedure: as §1, §2, §3

[5] = target: T5, TIE2 (Homo sapiens, UniProt Q02763); assay: PanQinase kinase panel: TIE2; type: biochemical; settings: read-out: INHIBITORY EFFECT @ 1 uM: TIE2
T5 construct: purchased Reaction Biology Europe GmbH
T5 sequence (Q02763 23-1124): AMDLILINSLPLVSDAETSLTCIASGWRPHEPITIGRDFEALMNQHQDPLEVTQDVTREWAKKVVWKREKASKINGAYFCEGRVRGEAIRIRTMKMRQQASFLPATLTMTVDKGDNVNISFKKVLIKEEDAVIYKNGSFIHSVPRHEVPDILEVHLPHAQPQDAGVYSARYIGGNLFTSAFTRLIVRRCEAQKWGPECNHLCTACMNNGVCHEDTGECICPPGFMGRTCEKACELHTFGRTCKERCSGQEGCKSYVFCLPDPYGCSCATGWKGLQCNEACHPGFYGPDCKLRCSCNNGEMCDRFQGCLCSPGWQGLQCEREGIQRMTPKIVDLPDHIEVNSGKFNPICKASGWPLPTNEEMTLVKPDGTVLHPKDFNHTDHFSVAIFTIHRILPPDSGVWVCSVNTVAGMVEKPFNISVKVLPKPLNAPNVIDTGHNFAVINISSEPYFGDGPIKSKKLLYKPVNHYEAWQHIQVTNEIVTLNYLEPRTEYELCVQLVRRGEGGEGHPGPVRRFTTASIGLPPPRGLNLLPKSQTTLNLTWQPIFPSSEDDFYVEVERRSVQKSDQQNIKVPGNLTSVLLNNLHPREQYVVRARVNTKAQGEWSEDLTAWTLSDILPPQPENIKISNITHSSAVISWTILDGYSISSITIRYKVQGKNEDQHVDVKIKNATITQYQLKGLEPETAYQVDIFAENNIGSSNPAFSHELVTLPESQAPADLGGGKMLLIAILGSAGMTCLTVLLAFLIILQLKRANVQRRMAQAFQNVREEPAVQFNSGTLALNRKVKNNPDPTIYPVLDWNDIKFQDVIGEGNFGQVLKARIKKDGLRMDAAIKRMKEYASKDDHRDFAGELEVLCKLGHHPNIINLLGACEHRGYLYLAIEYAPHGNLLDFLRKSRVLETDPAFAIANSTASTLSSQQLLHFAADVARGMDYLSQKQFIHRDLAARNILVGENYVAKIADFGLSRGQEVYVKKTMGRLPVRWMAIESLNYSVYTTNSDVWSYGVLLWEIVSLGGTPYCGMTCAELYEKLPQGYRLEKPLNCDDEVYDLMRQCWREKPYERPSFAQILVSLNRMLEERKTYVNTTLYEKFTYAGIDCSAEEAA
Procedure: as §1, §2, §3

[6] = target: T6, BRK (Homo sapiens, UniProt Q13882); assay: PanQinase kinase panel: BRK; type: biochemical; settings: read-out: INHIBITORY EFFECT @ 1 uM: BRK
T6 construct: purchased Reaction Biology Europe GmbH
T6 sequence (Q13882 whole entry): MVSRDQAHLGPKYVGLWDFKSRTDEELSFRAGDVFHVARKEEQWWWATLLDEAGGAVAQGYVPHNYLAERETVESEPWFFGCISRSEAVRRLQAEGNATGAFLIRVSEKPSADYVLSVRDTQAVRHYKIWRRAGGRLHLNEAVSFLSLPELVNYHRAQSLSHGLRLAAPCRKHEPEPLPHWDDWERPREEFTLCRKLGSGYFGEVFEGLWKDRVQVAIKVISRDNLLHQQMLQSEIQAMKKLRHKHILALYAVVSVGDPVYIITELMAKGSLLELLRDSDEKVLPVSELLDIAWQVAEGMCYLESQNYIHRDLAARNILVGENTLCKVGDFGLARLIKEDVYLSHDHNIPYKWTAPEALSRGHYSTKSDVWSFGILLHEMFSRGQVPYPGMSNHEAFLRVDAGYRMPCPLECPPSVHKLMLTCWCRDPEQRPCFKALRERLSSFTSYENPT
Procedure: as §1, §2
As part of the data evaluation the low control of each kinase was subtracted from the high control value as well as from their corresponding “compound values”.

[7] = target: CXCR4 (Homo sapiens, UniProt P61073); assay: Intracellular CXCL-12-induced calcium mobilization assay (FLIPR), U87.CXCR4 cells; type: cell-based; parameters: expressed in transfected cells; host or cells: U87 (U87.CXCR4); settings: CXCL-12 25-50 ng/ml, read-out: IC50 CXCL-12 Ca2+ flux U87.CXCR4+
Chain of CXCR4 (P61073 whole entry): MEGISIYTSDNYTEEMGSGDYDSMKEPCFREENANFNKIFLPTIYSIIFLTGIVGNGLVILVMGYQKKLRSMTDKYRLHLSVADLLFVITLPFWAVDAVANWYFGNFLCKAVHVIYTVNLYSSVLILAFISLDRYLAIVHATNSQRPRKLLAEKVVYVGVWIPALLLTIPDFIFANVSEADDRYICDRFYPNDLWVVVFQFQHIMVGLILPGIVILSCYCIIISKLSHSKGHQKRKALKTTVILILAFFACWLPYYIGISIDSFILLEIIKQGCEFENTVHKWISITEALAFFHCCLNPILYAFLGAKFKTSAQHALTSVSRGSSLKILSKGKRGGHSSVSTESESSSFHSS
How it was run: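 U87 cells transfected with CXCR4 were loaded with 4 μM Fluo-2 AM for 45 min at 37° C in HBSS with 20 mM HEPES and 0.2% BSA, pH 7.4. Calcium mobilization induced by CXCL-12 (25-50 ng/ml) was followed over time by FLIPR fluorescence at 37° C.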

T1 sequence (Q9H3Y6 whole entry): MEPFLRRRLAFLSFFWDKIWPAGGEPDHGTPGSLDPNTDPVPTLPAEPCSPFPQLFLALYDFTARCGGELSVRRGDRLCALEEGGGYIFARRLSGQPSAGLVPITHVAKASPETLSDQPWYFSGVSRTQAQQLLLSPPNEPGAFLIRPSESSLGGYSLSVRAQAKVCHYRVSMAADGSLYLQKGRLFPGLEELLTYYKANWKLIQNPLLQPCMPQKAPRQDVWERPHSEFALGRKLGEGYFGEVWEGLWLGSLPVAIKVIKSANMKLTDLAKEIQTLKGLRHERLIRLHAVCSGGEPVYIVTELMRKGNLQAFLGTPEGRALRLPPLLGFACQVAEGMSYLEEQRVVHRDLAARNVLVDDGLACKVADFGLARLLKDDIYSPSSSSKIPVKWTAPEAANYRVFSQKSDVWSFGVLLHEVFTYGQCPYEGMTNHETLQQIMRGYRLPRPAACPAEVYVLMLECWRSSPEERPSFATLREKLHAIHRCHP

SMILES	inhibition at 1 µM [1] [%]	inhibition at 1 µM [2] [%]	inhibition at 1 µM [3] [%]	inhibition at 1 µM [4] [%]	inhibition at 1 µM [5] [%]	inhibition at 1 µM [6] [%]	pIC50 [7]
O=C(c1ccc(Oc2ccccc2)cc1Cl)c1c[nH]c2ncnc(N[C@@H]3CC[C@@H](CO)OC3)c12 [ARQ-531, (2-chloro-4-phenoxyphenyl) (4-(((3R,6S)-6-(hydroxymethyl)tetrahydro-2H-pyran-3-yl)amino)-7H-pyrrolo[2,3-d]pyrimidin-5-yl) methanone]	90 to 100	50 to 69	90 to 100	50 to 69	< 50	–	–
Cc1cccnc1[C@H]1CCC[C@@H](c2ncccc2C)N1CCN1CCN(C(=O)c2ccc(-c3cc4c(-c5cccc(NC(=O)c6ccccc6)c5C)ncnc4[nH]3)cc2)CC1 [Compound I-10, N-(3-(6-(4-(4-(2-((2R,6S)-2,6-bis(3-methylpyridin-2-yl)piperidin-1-yl)ethyl)piperazine-1-carbonyl)phenyl)-7H-pyrrolo[2,3-d]pyrimidin-4-yl)-2-methylphenyl)benzamide]	< 50	< 50	< 50	< 50	< 50	< 50	7.00 to 9.00
Cc1cc(-c2ccnc(Nc3cnn(CCN4[C@@H](c5ncccc5C)CCC[C@H]4c4ncccc4C)c3)n2)ccc1CNC(=O)N1CC(OC(C)C)C1 [Compound I-11]	–	–	–	–	–	–	6.00 to 7.00
Cc1cccnc1[C@H]1CCC[C@@H](c2ncccc2C)N1CCCCNC(=O)[C@@H]1CC[C@@H](Nc2ncnc3[nH]cc(C(=O)c4ccc(Oc5ccccc5)cc4Cl)c23)CO1 [Compound I-16]	–	–	–	–	–	–	6.00 to 7.00
Cc1cccnc1[C@H]1CCC[C@@H](c2ncccc2C)N1CCCCNC(=O)OC[C@@H]1CC[C@@H](Nc2ncnc3[nH]cc(C(=O)c4ccc(Oc5ccccc5)cc4Cl)c23)CO1 [Compound I-18]	–	–	–	–	–	–	< 5.60
COc1ccc(F)cc1C(=O)NCc1ccc(-c2nn([C@@H](C)C(F)(F)F)c(N)c2C(N)=O)cc1 [LOXO-305, pirtobrutinib]	< 50	< 50	< 50	< 50	< 50	70 to 89	–
C=CC(=O)N1CCC([C@@H]2CCNc3c(C(N)=O)c(-c4ccc(Oc5ccccc5)cc4)nn32)CC1 [Zanubrutinib, (7S)-2-(4-phenoxyphenyl)-7-(1-prop-2-enoylpiperidin-4-yl)-4,5,6,7-tetrahydropyrazolo[1,5-a]pyrimidine-3-carboxamide]	< 50	< 50	< 50	< 50	< 50	90 to 100	–
